# Experimental data: patent US11377473B2, “Albumin-binding prodrugs of auristatin E derivatives” (priority 2017, dated 2022)
# How the values were obtained:
# [1] = tested on: malignant melanoma cancer model A375; assay: Human malignant melanoma cancer model A375, large tumors; type: in vivo, NMRI nude mice
# Procedure: Feed and water were provided ad libitum. […] Identification used: ear mark and cage labels. […] Tumor volumes were calculated according to the following equation: […]
# The evaluation of auristatin E and the albumin-binding auristatin E derivative AE-Keto-Sulf07 in a human malignant melanoma cancer model A375 was carried out as described in the general procedure for cell-line-derived xenograft models.
# (§1) Stock solutions were prepared as follows: • 1) 7 mice, 28 g average weight, 310 mm^3 average median tumor volume on day of randomization: 0.3 mg/kg auristatin E TFA salt (AE equiv.) dosed twice weekly for 3 weeks on day 1, 6, 9, 13, 16≡0.35 mg/kg≡7.1 μg/20 g mouse.
# The evaluation of auristatin E and the albumin-binding auristatin E derivative AE-Ester-Sulf07 in a human malignant melanoma cancer model A375 was carried out as described in the general procedure for cell-line-derived xenograft models.
# as §1, with “Based on the dosing experience in the RXF631 xenograft model, stock” for “Stock”, “16=0.35” for “16≡0.35”
# [2] = tested on: NSCLC xenograft model LXFA737; assay: Human non-small cell lung cancer model LXFA737, small tumors; type: in vivo, NMRI nude mice; details: for p, antitumor efficacy versus auristatin E: 8 times twice weekly, day 56 and 63
# Excerpt: (§2) Mice were kept under a 14-hour light/10-hour dark, artificial light cycle. The animals were fed with autoclaved Teklad Global 19% Protein Extruded Diet (T.2019S.12) from Envigo RMS SARL and had access to sterile filtered and acidified (pH 2.5) tap water which was changed twice weekly. Feed and water were provided ad libitum. […] Animals were routinely monitored twice daily on working days and daily on Saturdays and Sundays. Starting on day 0, animals were weighed twice a week. Relative body weights (RBW) of individual animals were calculated by dividing the individual absolute body weight on day X (BWx) by the individual body weight on the day of randomization multiplied by 100%. […] Tumor volumes were calculated according to the following equation: […]
# (§3) Statistical analysis was only carried out if at least 50% of the initially randomized animals in a relevant group were still alive. Comparisons between test groups were carried out for the same days. By convention, p-values ≤0.05 indicate significance of tumor inhibition. Statistical calculations were performed using GraphPad Prism bioanalytic software (San Diego Calif. USA, www.graphpad.com).
# (§4) The evaluation of auristatin E and the albumin-binding auristatin E derivative AE-Keto-Sulf07 in a human non-small cell lung cancer model LXFA737 was carried out as described in the general procedure for patient-derived xenograft models.
# Sample preparation: 38 mg weighed in a 30 mL vial dissolved in 23.8 mL 50/50 tert-butanol/10 mM sodium citrate buffer, 5% sucrose—pH 6; 1.2 mL were aliquoted in 4 mL vials.
# The evaluation of auristatin E and the albumin-binding auristatin E derivative AE-Ester-Sulf07 in a human non-small cell lung cancer model LXFA737 was carried out as described in the general procedure for patient-derived xenograft models.
# [3] = tested on: NSCLC xenograft model LXFA737; assay: Human non-small cell lung cancer model LXFA737, large tumors; type: in vivo, NMRI nude mice
# Excerpt: as §2, §3, §4
# Sample preparation: 51 mg weighed in a 100 mL vial dissolved in 36.5 mL 50/50 tert-butanol/10 mM sodium citrate buffer, 3% 2-HPßCD—pH 6.2; 2.4 mL were aliquoted in 4 mL vials.
# [4] = tested on: renal cell cancer model RXF631; assay: Human renal cell cancer model RXF631, small tumors; type: in vivo, NMRI nude mice
# Excerpt: as §2, §3
# The initial evaluation of auristatin E and the albumin-binding auristatin E derivative AE-Ester-Sulf07 in a human renal cell cancer model RXF631 was carried out as described in the general procedure for a patient-derived xenograft model.
# albumin in human plasma = target: T1, albumin in human plasma (Homo sapiens, UniProt P02768); assay: Binding kinetics to albumin in human plasma; type: in vitro ADME; details: 37° C.
# T1 construct: the plasma was separated from the red blood cells by spinning it down for 3 minutes at 3000 RPM; from tissue; host or cells: fresh plasma of a healthy human volunteer
# T1 sequence (P02768 25-609): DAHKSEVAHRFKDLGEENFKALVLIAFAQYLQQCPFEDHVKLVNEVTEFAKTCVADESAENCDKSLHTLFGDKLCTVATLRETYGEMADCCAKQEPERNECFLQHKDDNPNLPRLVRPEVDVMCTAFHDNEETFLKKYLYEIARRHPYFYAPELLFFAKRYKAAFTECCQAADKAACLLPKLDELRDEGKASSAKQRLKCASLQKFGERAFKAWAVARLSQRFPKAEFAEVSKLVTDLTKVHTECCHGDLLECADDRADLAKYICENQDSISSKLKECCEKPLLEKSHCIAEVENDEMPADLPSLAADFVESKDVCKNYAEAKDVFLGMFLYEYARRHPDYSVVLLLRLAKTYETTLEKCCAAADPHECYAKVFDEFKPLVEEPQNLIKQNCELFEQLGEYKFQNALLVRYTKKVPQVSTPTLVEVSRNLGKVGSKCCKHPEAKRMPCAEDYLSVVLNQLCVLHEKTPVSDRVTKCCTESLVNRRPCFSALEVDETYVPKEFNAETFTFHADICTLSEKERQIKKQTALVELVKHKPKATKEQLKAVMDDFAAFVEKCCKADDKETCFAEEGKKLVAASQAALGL
# Procedure: Whole blood was taken from a healthy human volunteer (EDTA collection tube), the plasma was separated from the red blood cells by spinning it down for 3 minutes at 3000 RPM. The plasma was then used directly, within 2 hours of the blood donation. 360 μL of the appropriate plasma was used for each binding experiment.
# (§5) All binding experiments were carried out in triplicate. The plasma was incubated at 37° C. using an Eppendorf Thermomixer C. After 30 minutes incubation 40 μL of the appropriate albumin-binding auristatin-Sulf07 derivative was dissolved in its reconstitution solution and added to the plasma. Samples (40 μL) were taken after 15 seconds, 2 minutes, 4 minutes, 8 minutes and 15 minutes (5 samples).
# (§6) The samples were immediately added to 160 μL of acetonitrile (containing 4 μg/mL of 'MMAE as an internal standard) and vortexed for 1 minute.
# (§7) The solutions were pipetted into an Impact plasma precipitation plate (shaken for 60 seconds) and filtered by vacuum onto a 96 well plate. Remaining drug was determined by LCMS quantification (method 5, 30 μL injection) using MRM MS2 negative mode (multiple reaction monitoring). Parent ions: auristatin F (Mass-744.8), AE-Keto-Sulf07 (Mass-1135.1) and AE-Ester-Sulf07 (Mass-1283.2). Percentage of binding was determined by comparing the AUC for AE-Keto-Sulf07 and AE-Ester-Sulf07 to calibration curves generated by LCMS for each compound.
# albumin in murine plasma = target: T2, albumin in murine plasma (Mus musculus, UniProt P07724); assay: Binding kinetics to albumin in murine plasma; type: in vitro ADME, CD1 murine; details: 37° C.
# T2 construct: CD1 murine plasma and Sprague Dawley rat plasma were removed from −80° C. storage; from tissue; host or cells: CD1 murine plasma (frozen, thawed, filtered)
# T2 sequence (P07724 25-608): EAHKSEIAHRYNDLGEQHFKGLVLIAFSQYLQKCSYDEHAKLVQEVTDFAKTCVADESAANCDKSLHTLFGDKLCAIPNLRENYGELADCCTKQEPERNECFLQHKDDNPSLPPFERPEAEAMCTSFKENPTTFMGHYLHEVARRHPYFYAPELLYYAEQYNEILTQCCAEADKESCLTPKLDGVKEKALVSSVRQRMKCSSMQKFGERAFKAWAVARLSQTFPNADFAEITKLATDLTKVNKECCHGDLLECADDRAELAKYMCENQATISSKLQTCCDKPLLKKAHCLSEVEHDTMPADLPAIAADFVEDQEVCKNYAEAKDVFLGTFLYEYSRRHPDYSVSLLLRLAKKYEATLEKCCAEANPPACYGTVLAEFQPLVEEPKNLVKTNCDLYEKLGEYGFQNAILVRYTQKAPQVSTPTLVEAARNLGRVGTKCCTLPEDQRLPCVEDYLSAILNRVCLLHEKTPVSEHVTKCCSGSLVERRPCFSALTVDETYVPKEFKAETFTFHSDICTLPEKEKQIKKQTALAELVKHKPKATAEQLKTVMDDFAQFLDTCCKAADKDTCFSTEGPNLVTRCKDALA
# Procedure: CD1 murine plasma and Sprague Dawley rat plasma were removed from −80° C. storage and allowed to reach room temperature. The thawed plasma was spun down at 13.6 kRPM for 60 seconds, the supernatant was filtered through a filter needle (5 μm) and subsequently through a 0.45 μm CA membrane.
# as §5, §6, §7
# [5] = 2.4 mg/kg five times twice weekly
molecule,measurement,setting,value
CC[C@H](C)[C@@H]([C@@H](CC(=O)N1CCC[C@H]1[C@H](OC)[C@@H](C)C(=O)N[C@H](C)[C@@H](O)c1ccccc1)OC)N(C)C(=O)[C@@H](NC(=O)[C@H](C(C)C)N(C)C)C(C)C [auristatin E],tumor response,"[1]; 0.3 mg/kg five times twice weekly, initial, until day 14",stable disease (stable disease >75-125%)
same,tumor response,"[2]; 0.3 mg/kg 8 times twice weekly, temporarily, day 21 to day 42",stable disease (stable disease >75-125%)
same,antitumor activity,[3]; 0.3 mg/kg 8 times twice weekly,did not show any activity
same,tumor response,"[4]; 0.3 mg/kg twice weekly, up to day ˜40",stable disease (stable disease >75-125%)
"2-(2-(1-(4-(((1S,2R)-2-((2R,3R)-3-((S)-1-((3R,4R,5S)-4-((S)-2-((R)-2-(dimethylamino)-3-methylbutanamido)-N,3-dimethylbutanamido)-3-methoxy-5-methylheptanoyl)pyrrolidin-2-yl)-3-methoxy-2-methylpropanamido)-1-phenylpropoxy)carbonyl)phenyl)ethylidene)hydrazine-1-carbonyl)-5-(6-(2,5-dioxo-2,5-dihydro-1H-pyrrol-1-yl)hexanamido)benzenesulfonic acid [AE-Ester-Sulf07]",albumin binding in plasma,albumin in human plasma,very rapid
same,albumin binding in plasma,albumin in murine plasma,very rapid
same,"p, antitumor improvement versus auristatin E","[1]; 2.4 mg/kg (2% polysorbate 80 or 4% 2-HPßCD) versus auristatin E 0.3 mg/kg, five injections twice weekly, day 9 to 33",< 0.01
same,body weight change,[1]; [5],No significant body weight change compared to the control
same,side effects,[1]; [5],wounds due to biting and scratching were observed starting from day 9
same,tumor response,"[1]; 2.4 mg/kg five times twice weekly, day 16 until end of study on day 37",almost complete remission
same,minimum tumor volume,"[1]; 2.4 mg/kg reconstituted with 2% polysorbate 80, day 23",4 mm^3
same,minimum tumor volume,"[1]; 2.4 mg/kg reconstituted with 4% 2-HPßCD, day 26",1 mm^3
same,animals lost,"[1]; 2.4 mg/kg, 2% polysorbate 80 group",Only one mouse
same,animals lost,[2]; 2.4 mg/kg 8 times twice weekly,five mice had to be euthanized due to a combination of body weight loss and skin lesions
same,tumor response,"[2]; 2.4 mg/kg 8 times twice weekly, reached on day 21, until end of study on day 74",complete tumor remission
same,"p, antitumor efficacy versus auristatin E",[2]; 2.4 mg/kg versus auristatin E 0.3 mg/kg,< 0.05
same,tumor volume,"[2]; 2.4 mg/kg, until end of study on day 74",unmeasurable level
same,minimum tumor volume,[4]; 2.2 mg/kg (3.0 mg/kg on day 15 and 19) twice weekly,1 mm^3
same,tumor response,"[4]; 2.2 mg/kg (3.0 mg/kg on day 15 and 19) twice weekly, day 24 to day 53",complete remission (complete remission <10%)
same,"p, antitumor efficacy versus auristatin E","[4]; 2.2 mg/kg (3.0 mg/kg on injection day 15 and 19) versus auristatin E 0.3 mg/kg, twice weekly",< 0.05
same,side effects,[4]; 2.2-3.0 mg/kg twice weekly,Wounds due to biting and scratching were also observed starting from day 17
same,animals lost,"[4]; 2.2-3.0 mg/kg, on day 20, 43 and 66","Two mice died, and one had to be sacrificed for general bad conditions"
same,transient body weight loss,"[4]; 2.2-3.0 mg/kg, reached on day 31",9%
"CC[C@H](C)[C@@H]([C@@H](CC(=O)N1CCC[C@H]1[C@H](OC)[C@@H](C)C(=O)N[C@H](C)C(=NNC(=O)c1ccc(NC(=O)CCCCCN2C(=O)C=CC2=O)cc1S(=O)(=O)O)c1ccccc1)OC)N(C)C(=O)[C@@H](NC(=O)[C@H](C(C)C)N(C)C)C(C)C [AE-Keto-Sulf07, 2-(2-((R)-2-((2R,3R)-3-((S)-1-((3R,4S,5S)-4-((S)-2-((S)-2-(dimethylamino)-3-methylbutanamido)-N,3-dimethylbutanamido)-3-methoxy-5-methylheptanoyl)pyrrolidin-2-yl)-3-methoxy-2-methylpropanamido)-1-phenylpropylidene)hydrazine-1-carbonyl)-5-(6-(2,5-dioxo-2,5-dihydro-1H-pyrrol-1-yl)hexanamido)benzenesulfonic acid]",albumin binding in plasma,albumin in human plasma,very rapid
same,albumin binding in plasma,albumin in murine plasma,very rapid
same,animals lost,[1]; 6.5 mg/kg five times twice weekly,two mice had to be sacrificed for general bad conditions
same,tumor response,"[1]; 6.5 mg/kg five times twice weekly, day 19 until end of study on day 37",complete remission (complete remission <10%)
same,"p, antitumor effect versus auristatin E","[1]; 6.5 mg/kg versus auristatin E 0.3 mg/kg, five injections twice weekly, day 9 until day 33",< 0.01
same,minimum tumor volume,"[1]; 6.5 mg/kg, day 28",1 mm^3
same,tumor volume at the end of the study,"[1]; 6.5 mg/kg, day 37",~14 mm^3
same,transient body weight loss,"[1]; 6.5 mg/kg, reached on day 21",13%
same,tumor response,"[2]; 4.5 mg/kg 8 times twice weekly, reached on day 28, until end of study on day 74",complete tumor remission
same,"p, antitumor efficacy versus auristatin E",[2]; 4.5 mg/kg (polysorbate 80 and 2-HPßCD buffers) versus auristatin E 0.3 mg/kg,< 0.01
same,animals lost,[2]; 4.5 mg/kg administered in polysorbate 80,two mice had to be sacrificed for general bad conditions
same,maximum body weight loss,"[2]; 4.5 mg/kg in 2-HPßCD, day 32",−7%
same,tumor volume,"[2]; 4.5 mg/kg, until end of study on day 74, independently of the buffer",unmeasurable level
same,side effects,[3]; 4.5 mg/kg 8 times twice weekly,No side effects were registered
same,tumor response,"[3]; 4.5 mg/kg 8 times twice weekly, day 15 until end of study on day 59",partial tumor remission
same,"p, antitumor efficacy versus auristatin E","[3]; 4.5 mg/kg versus auristatin E 0.3 mg/kg, 8 times twice weekly, day 28",< 0.01
